Three compounds from paper PMC6984391, “Anion carriers as potential treatments for cystic fibrosis: transport in cystic fibrosis cells, and additivity to channel-targeting drugs” (Chemical Science, 2019) can be followed below.

The test system of data set [1] is WT-CFTR-YFP-FRT cells. The data set can be described thus: Anionophore anion transport in WT-CFTR-YFP-FRT cells. The following applies: anionophore 50 μM, CFTRinh-172 10 μM. In kind it is cell-based, Fischer rat. The text has this: Next, we sought to learn whether the activities of 11, 12, 15, and 19 are additive to that of CFTR. For these studies, we used FRT cells co-expressing wild-type human CFTR and YFP-H148Q/I152L (WT-CFTR-YFP-FRT cells).[28] […] This latter effect is difficult to explain and merits further investigation.
FRT cells stably expressing the halide sensor YFP-H148Q/I152L6 were generous gifts of AS Verkman (University of California, San Francisco), while CFBE41o- cells7 stably expressing YFP (YFP-CFBE cells) were a generous gift of LJV Galietta (Telethon Institute for Genetics and Medicine). YFP-FRT cells were cultured as described previously for FRT cells8 except that media contained 10% fetal bovine serum, 2 mM L-glutamine and the selection agent G418 (YFP-FRT cells, 0.5 mg ml-1; WT-CFTR-YFP-FRT cells, 0.75 mg ml-1) or zeocin (F508del-CFTR-YFP-FRT cells, 0.5 mg ml-1). YFP-CFBE cells were cultured in minimal essential medium (MEM) supplemented with 10% fetal bovine serum, 2 mM L-glutamine, 100 U ml-1 penicillin and 100 mg ml-1 streptomycin. […]
Fluorescence plate reader assay […]
quenching of YFP fluorescence at 37 °C using a microplate reader following the method of Galietta et al..9 The microplate reader (model: FLUORstar Omega; BMG LABTECH Ltd., Aylesbury, UK) was equipped with a syringe pump and excitation (500 ± 10 nm) and emission (535 ± 15 nm) filters (Chroma Technology GmbH, Olching, Germany). […]
the PBS bathing cells 10 minutes prior to PBS iodide addition, whereas UTP was added to cells with the PBS iodide solution. Fluorescence was measured for 14 seconds; 2 seconds before and 12 seconds after injection of 110 µl PBS iodide solution (137 mM Cl- replaced by I-) into each well (to obtain a final concentration of I- of 100 mM).
We expressed cell fluorescence values (F) relative to the fluorescence value immediately before I- injection (F0), excluding the initial decrease, which likely represents the quenching of extracellular YFP released from cells and signal reduction accompanying the increase in solution volume bathing cells. […]

In data set [2] the test system is YFP-FRT cells. Nature of the data set: IncuCyte ZOOM live-cell viability (DRAQ7) in YFP-FRT cells. In kind it is cell-based. The protocol: For cytotoxicity studies, we used YFP-CFBE and YFP-FRT cells. […]
To evaluate the viability of YFP -FRT cells, we used the IncuCyte ZOOM TM (Essen Bioscience (now Sartorius), Welwyn Garden City, UK) live-cell analysis system. YFP-FRT cells were seeded in 96-well plates at a density of 4000 cells well-1 and allowed to grow for 48 h at 37 °C in a humidified atmosphere of 5% CO2. Then, the YFP-FRT culture media was replaced with fresh culture media containing test anionophores or the vehicle (DMSO 0.5% v v-1) and deep red anthraquinone 7 (DRAQ7; Biostatus, Shepshed, UK) was added following the manufacturer’s instructions before the YFP-FRT cells were transferred to the IncuCyte ZOOMTM. At 2 h intervals over a 24 h period, 4 images of each well on 96-well plates were acquired; the phase contrast images were used to determine the total number of cells per well, while the fluorescence images to identify the number of dead cells with nuclei labelled red by DRAQ7. In each experiment, one data point is the average value from four wells. […]
To investigate further the cytotoxicity of anionophores 12, 15 and 19 we used YFP-FRT cells. As a control we tested compound 11. Using the IncuCyte ZOOMTM (Essen Bioscience) live-cell analysis system and the membrane impermeable far-red fluorescent DNA dye DRAQ7 to label the nuclei of dead cells, we examined the effects of the anionophores 11, 12, 15 and 19 on the viability of YFP -FRT cells over a 24 h period. Consistent with our previous results (Fig.
S23 and ref 10), compound 11 had little effect on cell viability. Only at the highest concentrations tested (30 and 50 µM) and at time points later than 12 h (50 µM) or 14 h (30 µM) did cytotoxicity become apparent ( P < 0.05 vs. DMSO 0.5% v v -1) (Fig. S24). By contrast, the same concentrations of compounds 12, 15 and 19 had cytotoxic effects from 2 h with […]
19 (10 µM) from 8 h onwards (P < 0.05 vs. DMSO 0.5% v v -1) (Fig. S24).

Setting [3] is: 10 μM, 24 h period, P < 0.05 vs. DMSO.
[4] abbreviates: 30 μM, 24 h period, P < 0.05 vs. DMSO.
The mark [5] stands for this setting: 50 μM, 24 h period, P < 0.05 vs. DMSO.

Each structure is given as a SMILES string.

Take `CCOC(=O)[C@]12CC[C@@H](NC(=S)Nc3ccc([N+](=O)[O-])cc3)C[C@@H]1C[C@@H](NC(=S)Nc1ccc([N+](=O)[O-])cc1)CC2` [Compound 12]: the “effect of CFTRinh-172 on anion transport by anionophore” value (from here on “effect”) in data set [1] is reported as “without effect”. Further, the “time points at which cytotoxicity is apparent” value (“time points” for short) in data set [2] (rat, 24 h, 30 µM) was no less than 2 h; in data set [2] (rat, 24 h, 50 µM), no less than 2 h.

Regarding `CCOC(=O)[C@]12CC[C@@H](NC(=S)Nc3cc(C(F)(F)F)cc(C(F)(F)F)c3)C[C@@H]1C[C@@H](NC(=S)Nc1cc(C(F)(F)F)cc(C(F)(F)F)c1)CC2` [Compound 15], in data set [1], the “effect” value was “small, albeit significant, increase”. Besides, the “time points” value was no less than 2 h in data set [2] (5 μM, 24 h period, P < 0.05 vs. DMSO); no less than 2 h in data set [2] (setting [3]); no less than 2 h in data set [2] (setting [4]); no less than 2 h in data set [2] (setting [5]). Besides, the “toxicity (IncuCyte ZOOM)” value in data set [2] (10 μM) is listed as “some cell death”.

Take `FC(F)(F)c1cc(NC(=S)NCCN(CCNC(=S)Nc2cc(C(F)(F)F)cc(C(F)(F)F)c2)CCNC(=S)Nc2cc(C(F)(F)F)cc(C(F)(F)F)c2)cc(C(F)(F)F)c1` [Compound 19]: the “effect” value in data set [1] is given as “inhibited the activity”. For the same compound, the “toxicity (IncuCyte ZOOM)” value in data set [2] (10 μM) was “some cell death”. In addition, the “time points” value is recorded as no less than 8 h in data set [2] (setting [3]), no less than 2 h in data set [2] (setting [4]) and no less than 2 h in data set [2] (setting [5]).
